{"source": "patent EP1707568A2", "about": "“A pharmaceutical composition for use in the treatment of ovarian cancer in a human afflicted therewith” (SMITHKLINE BEECHAM CORPORATION, priority 1991, dated 1992)", "key": {"[1]": {"test": "Hang-bag stability of topotecan diluted in saline or dextrose", "assay_type": "physicochemical", "settings": "read-out: recovery", "experimental": "Topotecan diluted in saline (10 ug/ml or 500 ug/ml) or dextrose (6.7 ug/ml or 330 ug/ml) is stable in a hang-bag for 24 hours with at least 95% recovery."}, "[2]": {"test": "Stability of reconstituted topotecan solution further diluted in D5W or NS in plastic bags at room temperature", "assay_type": "physicochemical", "settings": "for Percentage of Initial Topotecan Remaining in Solution: 0 hrs; for remaining at 6 h / remaining at 24 h / remaining at 48 h: read-out: Percentage of Initial Topotecan Remaining in Solution", "experimental": "Topotecan is currently undergoing Phase I clinical investigation. The following pharmaceutical information is being supplied to the clinicians: • How supplied - As a vial containing 5 mg (of the base) with 100 mg mannitol. The pH is adjusted to 3.0 with HCl/NaOH. Lyophilized powder is light yellow in color. Intact vials should be stored under refrigeration (2-8 degrees Centigrade). • Solution Preparation -When the 5 mg vial is reconstituted with 2 ml of Sterile Water for Injection, USP, each ml will contain 2.5 mg of topotecan as the base and 50 mg of mannitol, USP. Topotecan must not be diluted or mixed with buffered solutions because of solubility and stability considerations. • Stability - Shelf life surveillance of the intact vials is ongoing. Because the single-use lyophilized dosage form contains no antibacterial preservatives, it is advised that the reconstituted solution be discarded eight hours after initial entry into the vial. Futher dilutions of the reconstituted solution to concentrations of 0.02 mg/ml and 0.1 mg/ml in 5% Dextrose Injection, USP, (\"D5W\") or 0.9% Sodium Chloride Injection, USP, (\"NS\") in plastic bags stored at room temperature yielded the following stability results:\nPercentage of Initial Topotecan Remaining in Solution"}, "[3]": {"test_system": "ovarian cancer", "test": "Clinical treatment of a platinum-refractory ovarian cancer patient, tumor size evaluated by CAT scan", "assay_type": "in vivo", "settings": "one human patient, intravenous 1.5 mg/m^2 per day for five consecutive days", "experimental": "One human patient with ovarian cancer, who was refractory to two previous platinum-containing regimens (i.e., cisplatin-cyclophosphamide combination regimen and treatment with single agent carboplatin), received a course of therapy comprising intravenous administration of 1.5 mg of topotecan/m^2 of body surface area per day for five consecutive days. This course of therapy was repeated […] nine more times to date at twenty-one day intervals (from the date of initiation of therapy) for a total of ten treatments. Tumor size regression was evaluated by CAT (computerized axial tomography) scan. […] At least until the tenth treatment, this clinically significant response was sustained, i.e., a greater than fifty percent (50%) tumor size regression was obtained."}}, "note": "Like-named read-outs stand apart in the source and are kept apart here."}
{"smiles": "CC[C@@]1(O)C(=O)OCc2c1cc1n(c2=O)Cc2cc3c(CN(C)C)c(O)ccc3nc2-1", "note": "[Topotecan, (S)-9-dimethylaminomethyl-10-hydroxycamptothecin]", "values": [{"measurement": "remaining at 24 h", "setting": "[1]; dextrose, 6.7 ug/ml", "result": "≥ 95", "unit": "%"}, {"measurement": "remaining at 24 h", "setting": "[1]; saline, 10 ug/ml", "result": "≥ 95", "unit": "%"}, {"measurement": "Percentage of Initial Topotecan Remaining in Solution", "setting": "[2]; D5W, 0.02 mg/ml", "result": 100.00, "unit": "%"}, {"measurement": "Percentage of Initial Topotecan Remaining in Solution", "setting": "[2]; D5W, 0.1 mg/ml", "result": 100.00, "unit": "%"}, {"measurement": "Percentage of Initial Topotecan Remaining in Solution", "setting": "[2]; NS, 0.02 mg/ml", "result": 100.00, "unit": "%"}, {"measurement": "Percentage of Initial Topotecan Remaining in Solution", "setting": "[2]; NS, 0.1 mg/ml", "result": 100.00, "unit": "%"}, {"measurement": "remaining at 6 h", "setting": "[2]; d5w, 0.02 mg/ml", "result": 99.3, "unit": "%"}, {"measurement": "remaining at 6 h", "setting": "[2]; d5w, 0.1 mg/ml", "result": 99.7, "unit": "%"}, {"measurement": "remaining at 24 h", "setting": "[2]; d5w, 0.02 mg/ml", "result": 102, "unit": "%"}, {"measurement": "remaining at 24 h", "setting": "[2]; d5w, 0.1 mg/ml", "result": 98.2, "unit": "%"}, {"measurement": "remaining at 48 h", "setting": "[2]; d5w, 0.02 mg/ml", "result": 102, "unit": "%"}, {"measurement": "remaining at 48 h", "setting": "[2]; d5w, 0.1 mg/ml", "result": 97.9, "unit": "%"}, {"measurement": "remaining at 6 h", "setting": "[2]; ns, 0.02 mg/ml", "result": 98.6, "unit": "%"}, {"measurement": "remaining at 6 h", "setting": "[2]; ns, 0.1 mg/ml", "result": 97.7, "unit": "%"}, {"measurement": "remaining at 24 h", "setting": "[2]; ns, 0.02 mg/ml", "result": 96, "unit": "%"}, {"measurement": "remaining at 24 h", "setting": "[2]; ns, 0.1 mg/ml", "result": 98.3, "unit": "%"}, {"measurement": "remaining at 48 h", "setting": "[2]; ns, 0.02 mg/ml", "result": 102, "unit": "%"}, {"measurement": "remaining at 48 h", "setting": "[2]; ns, 0.1 mg/ml", "result": 98.3, "unit": "%"}, {"measurement": "Tumor size regression", "setting": "[3]; following four courses", "result": "An even greater response was observed"}, {"measurement": "Tumor size regression", "setting": "[3]; following two courses of therapy", "result": "Tumor size regression was observed"}, {"measurement": "Tumor size regression", "setting": "[3]; sustained at least until the tenth treatment", "result": "> 50", "unit": "%"}]}
